Experiments:
RPAR Synovitis = assay: Reversed Passive Arthus-Reaction (RPAR) Synovitis technique; assay type: in vivo, male Lewis rats; conditions: dosage of 50 mpk, oral, split dose (half one hour before, half three hours after lesion induction); delta synovial weight about 17 hours after lesion induction; Lewis rat
Method: The anti-inflammatory potential of the compounds of the present invention may be determined by the Reversed Passive Arthus-Reaction (RPAR) Synovitis technique as set forth below using male Lewis rats (obtained from Charles River Breeding Laboratories) weighing 200-250 g. The potency of the compounds is determined using indo- methacin as the standard. On the basis of the test results, a dosage range of about 0.1 milligrams per kilogram of body weight per day to about 50 milligrams per kilogram of body weight per day in divided doses at about 4 hour intervals is recommended. For the preferred compounds of the invention tested, it is considered that the compounds are effectively non-toxic at the dose- rates indicated for treatment of inflammatory conditions. […]
The following morning (about 17 hours after lesion induction) the rat is killed and both knee joints are exposed. […] Differences in delta synovial weight between lesion controls and drug- treated rats are evaluated for statistical significance with an analysis of variance. Relative potencies are determined with a linear regression analysis. […]

[1] = Ulcerogenicity test (oral administration); assay type: in vivo; conditions: dosages as high as 100mpk

With `CCCCc1c(O)n(Cc2ccccc2)c2nc3c(c(=O)n(C)c(=O)n3C)n2c1=O` [B, 9-benzyl-1,3-dimethyl-8-hydroxy-7-(n-butyl)-9H-6-oxo-pyrimido[2,1-f]purine-2,4-dione] the “percentage inhibition of inflammation (I)” value (RPAR Synovitis) was 48%.
In the case of `CCCc1c(O)n(Cc2ccccc2)c2nc3c(c(=O)n(C)c(=O)n3C)n2c1=O` [A, 9-benzyl-1,3-dimethyl-8-hydroxy-7-n-propyl-9H-6-. oxo-pyrimido[2,1-f]purine-2,4-dione], the “percentage inhibition of inflammation (I)” value (RPAR Synovitis) is reported as 46% and the ulcerogenic [1] is reported as “not to be ulcerogenic”.
